Laboratory results from ChEMBL document CHEMBL1201862, “PubChem BioAssay data set” (2004).
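Cultured in 96-well plates, cells were exposed to test compound for 48 hours across five concentrations. GI50 is the concentration that inhibits growth by half.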 Active and inactive are the calls of the source. No stated cut-off is given here; in the data, active = GI50 up to about 1.1 µM and inactive = higher.

What was measured:
Assay in all cases: NCI tumour cell line growth inhibition, 48 h
OVCAR-8 = system: OVCAR-8
UACC-62 = system: UACC-62
SK-OV-3 = system: SK-OV-3
A549 = system: A549
SK-MEL-5 = system: SK-MEL-5
RPMI-8226 = system: RPMI-8226
M14 = system: M14
SK-MEL-2 = system: SK-MEL-2
SNB-19 = system: SNB-19
Malme-3M = system: Malme-3M
MOLT-4 = system: MOLT-4
SF-268 = system: SF-268
SF-295 = system: SF-295
TK-10 = system: TK-10
RXF 393 = system: RXF 393
EKVX = system: EKVX
LOX IMVI = system: LOX IMVI

Compound	GI50 (OVCAR-8)	GI50 (UACC-62)	GI50 (SK-OV-3)	GI50 (A549)	GI50 (SK-MEL-5)	GI50 (RPMI-8226)	GI50 (M14)	GI50 (SK-MEL-2)	GI50 (SNB-19)	GI50 (Malme-3M)	GI50 (MOLT-4)	GI50 (SF-268)	GI50 (SF-295)	GI50 (TK-10)	GI50 (RXF 393)	GI50 (EKVX)	GI50 (LOX IMVI)
COc1cccc(/C=N/C23CC4CC(CC(C4)C2)C3)c1	> 100 µM (inactive)	> 100 µM (inactive)	> 100 µM (inactive)	> 100 µM (inactive)	> 100 µM (inactive)	> 100 µM (inactive)	> 100 µM (inactive)	> 100 µM (inactive)	> 100 µM (inactive)	> 100 µM (inactive)	> 100 µM (inactive)	> 100 µM (inactive)	> 100 µM (inactive)	> 100 µM (inactive)	> 100 µM (inactive)	> 100 µM (inactive)	> 100 µM (inactive)
Nc1cccc2c1-c1c(cccc1[N+](=O)[O-])C2=O	> 100 µM (inactive)	> 100 µM (inactive)	> 100 µM (inactive)	> 100 µM (inactive)	> 100 µM (inactive)	> 100 µM (inactive)	> 100 µM (inactive)		> 100 µM (inactive)	> 100 µM (inactive)	> 100 µM (inactive)	> 100 µM (inactive)	> 100 µM (inactive)	> 100 µM (inactive)	> 100 µM (inactive)	> 100 µM (inactive)	> 100 µM (inactive)
COC1=CC(=O)C2C(C1=O)C(c1ccccc1)[C@H]2C (some centres undefined)	45.6 µM (inactive)	> 100 µM (inactive)	> 100 µM (inactive)	> 100 µM (inactive)	80 µM (inactive)	35.9 µM (inactive)	> 100 µM (inactive)	> 100 µM (inactive)	> 100 µM (inactive)	26.1 µM (inactive)	> 10 µM (inactive)	> 100 µM (inactive)	> 100 µM (inactive)	> 100 µM (inactive)	> 100 µM (inactive)	> 100 µM (inactive)	> 100 µM (inactive)
O=C(c1ccccc1)[C@H]1Nc2ccc(Cl)cc2[C@H]2c3ccccc3O[C@H]21	16.4 µM (inactive)	13.6 µM (inactive)		14.6 µM (inactive)	13.2 µM (inactive)	27 µM (inactive)	16.3 µM (inactive)	13.5 µM (inactive)	15.7 µM (inactive)	15.8 µM (inactive)	4.82 µM (inactive)	18.1 µM (inactive)	15.5 µM (inactive)	16.7 µM (inactive)	10.1 µM (inactive)	15.2 µM (inactive)	20.7 µM (inactive)
O=c1cc2n(c(=O)[nH]1)C1OC(C(O)C1O)[C@H]2CCO (some centres undefined)	> 100 µM (inactive)	> 100 µM (inactive)	> 100 µM (inactive)	> 100 µM (inactive)	> 100 µM (inactive)			> 100 µM (inactive)	> 100 µM (inactive)	> 100 µM (inactive)	> 100 µM (inactive)	> 100 µM (inactive)	> 100 µM (inactive)	> 100 µM (inactive)	> 100 µM (inactive)	> 100 µM (inactive)	> 100 µM (inactive)
CC(C)C1C(=O)NC(CO)Cc2c[nH]c3c(C(c4c[nH]c5ccccc45)C(O)CO)ccc(c23)N1C (centres undefined)	> 100 µM (inactive)	79.8 µM (inactive)	> 100 µM (inactive)	23.5 µM (inactive)	16.4 µM (inactive)	> 100 µM (inactive)	> 100 µM (inactive)	> 100 µM (inactive)	> 100 µM (inactive)		49 µM (inactive)	> 100 µM (inactive)	37.2 µM (inactive)	36.3 µM (inactive)	> 100 µM (inactive)	> 100 µM (inactive)	> 100 µM (inactive)
Brc1ccc(C2SCc3nc4ccccc4n32)cc1 (centres undefined)	12.8 µM (inactive)	6.68 µM (inactive)	16.7 µM (inactive)	19 µM (inactive)	3.72 µM (inactive)	5.08 µM (inactive)	12.4 µM (inactive)	14.1 µM (inactive)	4.48 µM (inactive)	12.9 µM (inactive)	13.4 µM (inactive)	13.6 µM (inactive)	11.5 µM (inactive)	13.8 µM (inactive)	7.45 µM (inactive)	11.9 µM (inactive)	6.46 µM (inactive)
Cc1ccc(F)c2c(=O)cc(-c3ccccc3)[nH]c12	> 100 µM (inactive)	> 100 µM (inactive)	> 100 µM (inactive)	> 100 µM (inactive)	87.5 µM (inactive)	> 100 µM (inactive)	> 100 µM (inactive)	> 100 µM (inactive)		> 100 µM (inactive)	> 100 µM (inactive)	> 100 µM (inactive)	> 100 µM (inactive)	> 100 µM (inactive)	> 100 µM (inactive)		> 100 µM (inactive)
Oc1cc(-c2ccccc2)nc2cc(Cl)ccc12	0.74 µM (active)	0.294 µM (active)	0.493 µM (active)	0.515 µM (active)	0.191 µM (active)	0.422 µM (active)	0.555 µM (active)	0.445 µM (active)	0.527 µM (active)	0.42 µM (active)	0.675 µM (active)	1.21 µM (inactive)	0.368 µM (active)	27.7 µM (inactive)	0.157 µM (active)	> 100 µM (inactive)	0.869 µM (active)
COC(=O)C1=CCS(=O)(=O)C1	> 100 µM (inactive)	> 100 µM (inactive)	> 100 µM (inactive)	> 100 µM (inactive)	5.16 µM (inactive)	> 100 µM (inactive)	> 100 µM (inactive)	> 100 µM (inactive)	> 100 µM (inactive)	> 100 µM (inactive)	> 100 µM (inactive)	> 100 µM (inactive)	> 100 µM (inactive)	> 100 µM (inactive)	> 100 µM (inactive)	> 100 µM (inactive)	> 100 µM (inactive)
CCOc1cn(C2OC(CO)C(O)C2O)c(=O)[nH]c1=O (centres undefined)	> 100 µM (inactive)	> 100 µM (inactive)	> 100 µM (inactive)	> 100 µM (inactive)	> 100 µM (inactive)	> 100 µM (inactive)	> 100 µM (inactive)	> 100 µM (inactive)	> 100 µM (inactive)	> 100 µM (inactive)	> 100 µM (inactive)	> 100 µM (inactive)	> 100 µM (inactive)	> 100 µM (inactive)	> 100 µM (inactive)	> 100 µM (inactive)	> 100 µM (inactive)
CCOc1ccc(N(CC(=O)N2CC(=O)Nc3cc(C)c(C)cc32)C(C)=O)cc1	> 100 µM (inactive)	> 100 µM (inactive)	> 100 µM (inactive)	> 100 µM (inactive)	> 100 µM (inactive)	> 100 µM (inactive)	> 100 µM (inactive)	> 100 µM (inactive)	> 100 µM (inactive)	> 100 µM (inactive)	> 100 µM (inactive)	87.5 µM (inactive)	> 100 µM (inactive)	> 100 µM (inactive)	> 100 µM (inactive)	> 100 µM (inactive)	> 100 µM (inactive)
O=C1NC2(CCCC2)/C(=N\O)C12CCCC2	> 100 µM (inactive)	> 100 µM (inactive)	> 100 µM (inactive)	> 100 µM (inactive)	> 100 µM (inactive)		> 100 µM (inactive)	> 100 µM (inactive)	> 100 µM (inactive)	> 100 µM (inactive)	> 100 µM (inactive)	> 100 µM (inactive)	> 100 µM (inactive)	> 100 µM (inactive)	> 100 µM (inactive)	> 100 µM (inactive)	> 100 µM (inactive)
CO[C@H]1CC[C@]2(C)C3=CC[C@@]4(C)C(CC[C@@H]4C(C)CC[C@@H](C)C(C)C)C(=CCC2C1)O3 (some centres undefined)	> 25 µM (inactive)	> 25 µM (inactive)	> 25 µM (inactive)	> 25 µM (inactive)	> 25 µM (inactive)	> 25 µM (inactive)	> 25 µM (inactive)	> 25 µM (inactive)	> 25 µM (inactive)	> 25 µM (inactive)	> 25 µM (inactive)	> 25 µM (inactive)	> 25 µM (inactive)	> 25 µM (inactive)	> 25 µM (inactive)	> 25 µM (inactive)	> 25 µM (inactive)
COC(=O)N/N=C(/CCN1CCCC1)CC(c1ccccc1)c1c(O)c2ccccc2oc1=O (centres undefined)	> 100 µM (inactive)	72.8 µM (inactive)	> 100 µM (inactive)	> 100 µM (inactive)	> 100 µM (inactive)	> 100 µM (inactive)	> 100 µM (inactive)	> 100 µM (inactive)	> 100 µM (inactive)	> 100 µM (inactive)	> 100 µM (inactive)	> 100 µM (inactive)	> 100 µM (inactive)	> 100 µM (inactive)	> 100 µM (inactive)	> 100 µM (inactive)	> 100 µM (inactive)
[O-][S+]1Cc2ccccc2CSS1 (centres undefined)	14.5 µM (inactive)	13 µM (inactive)	44.3 µM (inactive)	19 µM (inactive)	13.5 µM (inactive)	16.3 µM (inactive)	14 µM (inactive)		35.5 µM (inactive)	13 µM (inactive)	12.6 µM (inactive)	23.9 µM (inactive)	18.7 µM (inactive)	16.8 µM (inactive)	3.85 µM (inactive)	25.2 µM (inactive)	3.96 µM (inactive)
O=C1CCC2(c3ccc(F)cc3)Nc3cc(Cl)ccc3N12 (centres undefined)	> 100 µM (inactive)	66.1 µM (inactive)	> 100 µM (inactive)	59.4 µM (inactive)	45.5 µM (inactive)	76.7 µM (inactive)	> 100 µM (inactive)	> 100 µM (inactive)	> 100 µM (inactive)	59.7 µM (inactive)	37.2 µM (inactive)	> 100 µM (inactive)	60.5 µM (inactive)		88.9 µM (inactive)	> 100 µM (inactive)	> 100 µM (inactive)
